Measurements reported in publication PMC11845477, “Exploring the principles behind antibiotics with limited resistance” (Nature Communications, 2025).
Where a SMILES comes first, the peptide text is derived from it. Bridges are numbered along the chain shown (N, C = ends). [ ]: non-standard residue; d: D form. The star is where a group is joined. X1 = NC[C@@H](CC(=O)*)c1cccc(Cl)c1; X2 = CC[C@H](C)CCCCC(=O)*; Dab = NCC[C@H](N)C(=O)O; Dap = NC[C@H](N)C(=O)O

Experiments:
[1] = system: P. aeruginosa ATCC BAA-3107 (SEN) and P. aeruginosa LESB58 (MDR); experiment: microbe, parasite or virus in culture; type: cell-based, Pseudomonas aeruginosa; details: for MIC: across three biological replicates
Procedure: (§1) This study focused on multiple bacterial strains, as follows. For the FoR and ALE experiments, 2 strains per species were chosen: E. coli ATCC 25922, K. pneumoniae ATCC 10031, A. baumannii ATCC 17978, and P. aeruginosa ATCC BAA-3107 as sensitive (SEN) strains, and E. coli NCTC13846, K. pneumoniae ATCC 700603, A. baumannii ATCC BAA-1605 and P. aeruginosa LESB58 as multi-drug resistant (MDR) strains. Functional metagenomic screens were performed with E. coli ATCC 25922 and K. pneumoniae ATCC 10031 strains. To determine the dose-kill properties of the different antibiotics, an E. coli strain (ATCC 25922) expressing a yellow fluorescent protein (pZS2R, YFP, CHL^R) and a red fluorescent protein (pZS2R, mCherry, CHL^R) was used.
(§2) Unless otherwise indicated, cation-adjusted Mueller-Hinton Broth 2 (MHB, Millipore) medium was used throughout the study, except for SCH79797 (SCH).
(§3) A robotic liquid handling system was used to automatically prepare a 11 to 16-step serial dilution in 384-well microtiter plates (Greiner). A final concentration of 5 × 10^5 bacterial cells per mL were inoculated into each well containing 60 µL MHB medium. Bacterial cultures were incubated at 37 °C with continuous shaking (Infors shaker, 900 rpm with 3 mm throw) for 18 hours (2 replicates from each). Cell growth was monitored by measuring the optical density (OD600 values, using Biotek Synergy microplate reader). MIC was defined as the antibiotic concentration of complete growth inhibition (i.e., OD600 < 0.05). Relative MIC was calculated as follows:1 relativeMIC=MICevolved/MICancestor

[2] = system: E. coli ATCC 25922 (SEN) and E. coli NCTC13846 (MDR); experiment: microbe, parasite or virus in culture; type: cell-based, Escherichia coli; details: for MIC: across three biological replicates
Procedure: as §1, §2, §3

E. coli BW25113-ΔacrB = experiment: AcrAB-TolC efflux deficiency screen, relative MIC; type: cell-based, Escherichia coli; details: ΔacrB vs wild-type
Procedure: Fig. 6 The impact of AcrAB-TolC activity on antibiotic susceptibility. E. coli strains with AcrAB-TolC depletion (BW25113-ΔacrB) and overexpression (BW25113: pUCacrAB) were treated with various antibiotics, and the level of resistance was determined as minimum inhibitory concentration (MIC) relative to a wild-type strain, presented on a logarithmic scale (log2). Each bar represents the mean resistance level (susceptibility, i.e., level of resistance < 0; and resistance, i.e., level of resistance > 0) to antibiotics induced by acrAB overexpression (blue bars; E. coli with a multicopy plasmid of the acrAB genes (pUCacrAB)) and acrB deletion (red bars; mutant E. coli with acrB gene deletion (ΔacrB)) compared to the wild-type. Data are presented as mean values of 3 biological replicates ± SD. […] Detailed information on antibiotic and bacterial strain abbreviations is provided in Supplementary Data 1. Source data are provided as a Source Data file. For information on mode of action groups, refer to Table 1.
For the efflux deficiency screen, the ΔacrB mutant of E. coli K12 BW25113[86] and its equivalent wild-type control strain with intact gene were utilized. In contrast, BW25113 carrying a multicopy acrAB plasmid (pUCacrAB)[87] and its control strain harboring an empty pUC118 plasmid were used to overexpress the acrAB efflux system. According to established protocols via P1 transduction, the suitable acrB deletion mutant (ΔacrB BW25113) was created, while the pUCacrAB plasmid was kindly provided by Kunihiko Nishino and Akihito Yamaguchi (Osaka University, Osaka, Japan). In a prior study, both strains were employed. Since the copy number of the plasmid carrying the efflux pump is controlled by native promoters, external induction is unnecessary.
Antibiotic susceptibilities of these strains were evaluated using a modified version of the standard broth dilution method. In 96-well microtiter plates containing fresh MHB medium, or supplemented MS medium in case of SCH79797, ten-step serial dilutions of an antibiotic from a stock solution were made (2 wells per antibiotic concentration per strain). The two wells contained only supplemented media without any antibiotics […]. Strains were incubated overnight at 37 °C with continuous agitation. Additionally, plasmid containing strains were grown in the presence of 100 µg/mL ampicillin. The culture was diluted to yield a cell suspension with 5 ×10^5 cells/mL and then inoculated into the wells of the microtiter plate. To determine the medium’s background OD value, the first column of the 96-well plate contained solely MHB without inoculum. Prior to the measurement, the plates were incubated at 37 °C with continuous shaking at 900 rpm with 3 mm throw. OD600 values were determined in a microplate reader after 18 hours of incubation (Biotek Synergy 2). The minimum inhibitory concentration (MIC) was determined as the lowest concentration of antibiotic at which the OD600 values were less than 0.05 after subtracting the background value. The log2 of the relative MIC was computed using the following equation:2 log2relativeMICpUCacrAB=MICpUCacrAB/MICpUC118 3 log2relativeMICΔacrB=MICΔacrB/MICwt

[3] = system: K. pneumoniae ATCC 10031 (SEN) and K. pneumoniae ATCC 700603 (MDR); experiment: microbe, parasite or virus in culture; type: cell-based, Klebsiella pneumoniae; details: for MIC: across three biological replicates
Procedure: as §1, §2, §3

[4] = P. aeruginosa ATCC BAA 3107 (PA-SEN), ancestor strain, sheet fig 2a
[5] = Pseudomonas aeruginosa, ATCCBAA3107, Pseudomonas aeruginosa ATCC BAA-3107 (PA-SEN)
[6] = Pseudomonas aeruginosa, ATCCBAA3107, Pseudomonas aeruginosa LESB 58 (PA-MDR)
[7] = Escherichia coli ATCC 25922 (EC-SEN), ancestor strain, sheet fig 2a
[8] = Escherichia coli, Escherichia coli ATCC 25922 (EC-SEN)
[9] = Escherichia coli, Escherichia coli NCTC 13846 (EC-MDR)
[10] = Klebsiella pneumoniae ATCC 10031 (KP-SEN), ancestor strain, sheet fig 2a
[11] = Klebsiella pneumoniae, Klebsiella pneumoniae ATCC 10031 (KP-SEN)
[12] = Klebsiella pneumoniae, Klebsiella pneumoniae ATCC 700603 (KP-MDR)
[13] = E. coli NCTC 13846 (EC-MDR), ancestor strain, sheet fig 2a
[14] = Klebsiella pneumoniae ATCC 700603 (KP-MDR), ancestor strain, sheet fig 2a
[15] = Pseudomonas aeruginosa ATCC BAA-3107 (PA-SEN)
[16] = Pseudomonas aeruginosa LESB 58 (PA-MDR)
[17] = Escherichia coli ATCC 25922 (EC-SEN)
[18] = Escherichia coli NCTC 13846 (EC-MDR)
[19] = Klebsiella pneumoniae ATCC 10031 (KP-SEN)
[20] = Klebsiella pneumoniae ATCC 700603 (KP-MDR)
[21] = ancestor KP-MDR (Klebsiella pneumoniae ATCC 700603)
[22] = ancestor KP-SEN (Klebsiella pneumoniae ATCC 10031)

Structure (SMILES)	MIC of ancestor [1, 4]	MIC [1, 5]	MIC [1, 6]	MIC of ancestor [2, 7]	MIC [2, 8]	MIC [2, 9]	Relative MIC (log2) (E. coli BW25113-ΔacrB; replicate 1)	Relative MIC (log2) (E. coli BW25113-ΔacrB; replicate 2)	Relative MIC (log2) (E. coli BW25113-ΔacrB; replicate 3)	MIC of ancestor [3, 10]	MIC [3, 11]	MIC [3, 12]	MIC of ancestor [2, 13]	MIC of ancestor [3, 14]	MIC [1, 15]	MIC [1, 16]	MIC [2, 17]	MIC [2, 18]	MIC [3, 19]	MIC [3, 20]	also measured
C[C@H]1c2cccc(O)c2C(=O)C2=C(O)[C@]3(O)C(=O)C(C(N)=O)=C(O)[C@@H](N(C)C)[C@@H]3[C@@H](O)[C@@H]21 [Doxycycline]	4 µg/mL	4 µg/mL	32 µg/mL	1 µg/mL	1 µg/mL	16 µg/mL	-2.34	-2.34	-2.34	0.25 µg/mL	0.25 µg/mL	32 µg/mL									MIC of ancestor ([1]; Pseudomonas aeruginosa ATCC BAA 3107 (PA-SEN), ancestor strain): 4 µg/mL; MIC of ancestor ([2]; Escherichia coli ATCC 25922 (EC-SEN), ancestor strain): 1 µg/mL; MIC of ancestor ([3]; Klebsiella pneumoniae ATCC 10031 (KP-SEN), ancestor strain): 0.25 µg/mL
CN(C)[C@@H]1C(O)=C(C(N)=O)C(=O)[C@@]2(O)C(O)=C3C(=O)c4c(O)c(NC(=O)CN5CCCC5)cc(F)c4C[C@H]3C[C@@H]12 [Eravacycline]	4 µg/mL	4 µg/mL	32 µg/mL	0.125 µg/mL	0.125 µg/mL	1 µg/mL	-2.34	-2.34	-2.34	0.0312 µg/mL	0.0312 µg/mL	4 µg/mL	1 µg/mL	4 µg/mL							MIC of ancestor ([1]; PA-SEN, Pseudomonas aeruginosa ATCC BAA 3107, ancestor strain): 4 µg/mL; MIC of ancestor ([2]; EC-SEN, Escherichia coli ATCC 25922, ancestor strain): 0.125 µg/mL; MIC of ancestor ([2]; Escherichia coli NCTC 13846 (EC-MDR), ancestor strain): 1 µg/mL; MIC of ancestor ([3]; K. pneumoniae ATCC 10031 (KP-SEN), ancestor strain): 0.0312 µg/mL; MIC of ancestor ([3]; Klebsiella pneumoniae ATCC 700603 (KP-MDR), ancestor strain): 4 µg/mL
CC[C@H](C)CCCCC(=O)N[C@@H](CCN)C(=O)N[C@H](C(=O)N[C@@H](CCN)C(=O)N[C@H]1CCNC(=O)[C@H]([C@@H](C)O)NC(=O)[C@H](CCN)NC(=O)[C@H](CCN)NC(=O)[C@H](CC(C)C)NC(=O)[C@@H](Cc2ccccc2)NC(=O)[C@H](CCN)NC1=O)[C@@H](C)O [Polymyxin B] (X2-[Dab]T[Dab][Dab][Dab][dF]L[Dab][Dab]T; lactam 4-C (inferred); N-terminus assumed)							0	0	0						1 µg/mL	2 µg/mL	1 µg/mL	4 µg/mL	2 µg/mL	1 µg/mL	
CC(C)C[C@@H]1NC(=O)[C@@H](Cc2ccccc2)NC(=O)[C@H](CCN)NC(=O)[C@@H](NC(=O)[C@H](CN)NC(=O)[C@@H](NC(=O)C[C@H](CN)c2cccc(Cl)c2)[C@@H](C)O)CCNC(=O)[C@H]([C@@H](C)O)NC(=O)[C@H](CCN)NC(=O)[C@H](CCN)NC1=O [SPR206] (X1-T[Dap][Dab][Dab][dF]L[Dab][Dab]T; lactam 3-C (inferred); N-terminus assumed)	1 µg/mL						0	0	0	0.5 µg/mL			4 µg/mL	0.5 µg/mL	1 µg/mL	4 µg/mL	0.25 µg/mL	4 µg/mL	0.5 µg/mL	0.5 µg/mL	MIC of ancestor ([1]; P. aeruginosa ATCC BAA 3107 (PA-SEN), ancestor strain): 1 µg/mL; MIC of ancestor ([1]; P. aeruginosa LESB 58 (PA-MDR), ancestor strain): 4 µg/mL; MIC of ancestor ([1]; P. aeruginosa LESB 58 (PA-MDR), ancestor strain, sheet fig 2a): 4 µg/mL; MIC of ancestor ([2]; E. coli ATCC 25922 (EC-SEN), ancestor strain): 0.25 µg/mL; MIC of ancestor ([2]; E. coli ATCC 25922 (EC-SEN), ancestor strain, sheet fig 2a): 0.25 µg/mL; MIC of ancestor ([2]; E. coli NCTC 13846 (EC-MDR), ancestor strain): 4 µg/mL; MIC of ancestor [3, 21]: 0.5 µg/mL; MIC of ancestor [3, 22]: 0.5 µg/mL
C[C@@H](O)[C@H]1C(=O)N2C(C(=O)O)=C(S[C@H]3CC[S@@+]([O-])C3)S[C@H]12 [Sulopenem]							0.585	0.585	0.585	0.0312 µg/mL			0.0312 µg/mL	0.5 µg/mL	16 µg/mL	>32 µg/mL	0.0625 µg/mL	0.03125 µg/mL	0.03125 µg/mL	0.5 µg/mL	MIC of ancestor ([2]; ancestor EC-MDR (Escherichia coli NCTC 13846)): 0.0312 µg/mL; MIC of ancestor ([2]; ancestor EC-SEN (Escherichia coli ATCC 25922)): 0.0312 µg/mL; MIC of ancestor [3, 21]: 0.5 µg/mL; MIC of ancestor [3, 22]: 0.0312 µg/mL
